From US8173675B2, “Substituted amino-thiourea compounds for combating animal pests” (BASF SE, priority 2007, dated 2012)

Experiments:
[1] = system: Cotton Aphid (Aphis gossypii); test: Cotton aphid (Aphis gossypii) test, infested cotton cotyledons dipped in test solution; assay type: in vivo; conditions: 120 h, determined after 5 days, read-out: mortality of cotton aphid (Aphis gossypii, mixed life stages) in comparison with untreated controls
Method: (§1) The active compounds were formulated in a mixture of 50 vol.-% acetone:50 vol.-% water. A nonionic surfactant (Kinetic®) was included in the solution at a volume of 0.01% v/v.
(§2) In the following tests, the formulated solutions of the active compounds were diluted to an active ingredient concentration of 300 ppm, if not otherwise described, and the diluted solutions were applied in the below mentioned tests.
Cotton plants at the cotyledon stage were infested prior to treatment by placing a heavily infested leaf from the main aphid colony on top of each cotyledon. The aphids were allowed to transfer overnight and the host leaf was removed. The infested cotyledons were then dipped and agitated in the test solution for 3 seconds and allowed to dry in a fume hood. Test plants were maintained under fluorescent lighting in a 24-hr photoperiod at 25° C. and 20-40% relative humidity. Aphid mortality on the treated plants, relative to mortality on untreated check plants, was determined after 5 days.

[2] = system: Green Peach Aphid (Myzus persicae); test: Green peach aphid (Myzus persicae) test, infested bell pepper leaves dipped in test solution; assay type: in vivo; conditions: 120 h, determined after 5 days, read-out: mortality of green peach aphid in comparison with untreated controls
Method: as §1, §2
Bell pepper plants at the first true-leaf stage were infested prior to treatment by placing heavily infested leaves from the main aphid colony on top of the treatment plants. The aphids were allowed to transfer overnight to accomplish an infestation of 30-40 aphids per plant and the host leaves were removed. The infested leaves of the test plants were then dipped and agitated in the test solution for 3 seconds and allowed to dry in a fume hood. Test plants were maintained under fluorescent lighting in a 24-hr photoperiod at 25° C. and 20-40% relative humidity. Mortality on the treated plants, relative to mortality on untreated check plants, was determined after 5 days.

[3] = system: Cowpea Aphid (aphis craccivora); test: Cowpea aphid (aphis craccivora) test, colonized potted cowpea plants sprayed; assay type: in vivo; conditions: population reduction recorded after 24, 72, and 120 hours
Method: as §2
The active compounds were formulated in 50:50 acetone:water. Potted cowpea plants colonized with 100-150 aphids of various stages were sprayed after the pest population has been recorded. Population reduction was recorded after 24, 72, and 120 hours.

[4] = system: Vetch Aphid (Megoura viciae); test: Vetch aphid (Megoura viciae) test, sprayed bean leaf disks in microtiterplates; assay type: in vivo; conditions: foliar, 144 h, bean leaf disks sprayed with 2.5 μl, 6 days, read-out: mortality compared to untreated controls
Method: The active compounds were formulated in 1:3 DMSO:water. Bean leaf disks were placed into microtiterplates filled with 0.8% agar-agar and 2.5 ppm OPUS™. The leaf disks were sprayed with 2.5 μl of the test solution and 5 to 8 adult aphids were placed into the microtiterplates which were then closed and kept at 22-24° C. and 35-45% under fluorescent light for 6 days. Mortality was assessed on the basis of vital, reproduced aphids. Tests were replicated 2 times.

[5] = system: Silverleaf Whitefly (bemisia argentifolii); test: Silverleaf whitefly (bemisia argentifolii) test, cotton cotyledons dipped, whitefly adults introduced; assay type: in vivo; conditions: 72 h, whitefly adults on dipped cotton cotyledons, assessed 3 days after treatment, read-out: mortality compared to untreated controls
Method: as §2
The active compounds were formulated in 50:50 acetone:water and 100 ppm Kinetica™ surfactant.
Selected cotton plants were grown to the cotyledon state (one plant per pot). The cotyledons were dipped into the test solution to provide complete coverage of the foliage and placed in a well-vented area to dry. Each pot with treated seedling was placed in a plastic cup and 10 to 12 whitefly adults (approximately 3-5 day old) were introduced. The insects were colleted using an aspirator and an 0.6 cm, non-toxic TygonÒ tubing (R-3603) connected to a barrier pipette tip. The tip, containing the collected insects, was then gently inserted into the soil containing the treated plant, allowing insects to crawl out of the tip to reach the foliage for feeding. The cups were covered with a reusable screened lid (150 micron mesh polyester screen PeCap from Tetko Inc). Test plants were maintained in the holding room at about 25° C. and 20-40% relative humidity for 3 days avoiding direct exposure to the fluorescent light (24 hour photoperiod) to prevent trapping of heat inside the cup. Mortality was assessed 3 days after treatment of the plants.

Structure (SMILES) | mortality at 300 ppm [1] [%] | mortality at 300 ppm [2] [%] | mortality at 300 ppm [3] [%] | mortality at 2500 ppm [4] [%] | mortality at 300 ppm [5] [%] | melting point [°C]
OCCNC(=S)NC1COc2ccc(F)cc21 (stereo not drawn) [Compound example 1, 1-(5-Fluoro-2,3-dihydro-benzofuran-3-yl)-3-(2-hydroxy-ethyl)-thiourea] | ≥ 75 | ≥ 75 | ≥ 75 | ≥ 75 |  | 
OCCNC(=S)NC1CSc2c(F)cccc21 (stereo not drawn) [Compound example 2, 1-(7-Fluoro-2,3-dihydro-benzo[b]thiophen-3-yl)-3-(2-hydroxy-ethyl)-thiourea] | ≥ 75 | ≥ 75 | ≥ 75 | ≥ 75 |  | 
CC(=O)OCCNC(=S)NC1CSc2c(F)cccc21 (stereo not drawn) [Compound example 3, Acetic acid 2-[3-(7-fluoro-2,3-dihydro-benzo[b]thiophen-3-yl)thioureido]-ethyl ester] |  | ≥ 75 | ≥ 75 | ≥ 75 | ≥ 75 | 
OCCNC(=S)NC1(c2ccccc2)CCc2ccccc21 (stereo not drawn) [Compound example 4] |  |  |  |  |  | 67 to 69
CC(=O)OCCNC(=S)NC1c2cccc(F)c2CC1(C)C (stereo not drawn) [Compound example 5] | ≥ 75 | ≥ 75 | ≥ 75 | ≥ 75 | ≥ 75 | 
CC1(C)Cc2c(F)cccc2C1NC(=S)NCCO (stereo not drawn) [Compound example 6] | ≥ 75 | ≥ 75 | ≥ 75 | ≥ 75 |  | 
CC(=O)OCCNC(=S)NC1CC(C)c2c(F)cccc21 (stereo not drawn) [Compound example 7] | ≥ 75 | ≥ 75 |  | ≥ 75 | ≥ 75 | 
CC1Cc2c(F)cccc2C1NC(=S)NCCO (stereo not drawn) [Compound example 8] | ≥ 75 | ≥ 75 | ≥ 75 | ≥ 75 |  | 
